Measured values published in patent publication EP4775586A1, “DEUTERATED TETRACYCLIC DERIVATIVE AND USE THEREOF” (priority 2023, dated 2025).
≈ marks a conversion by molar mass, not a printed value. Structures can show the parent of a compound that is named as a salt. Where two headings read alike, the source gives them in different places.

Tested on: Mycobacterium tuberculosis H37Rv
Assay: Minimum inhibitory concentration (MIC90) against Mycobacterium tuberculosis H37Rv, Middlebrook 7H9, 96-well plate, 15 days
Type: cell-based
[1] = 360 h, Mycobacterium tuberculosis H37Rv, 15 days of incubation, 90% inhibition of growth, visual reading, read-out: MIC90
[2] = Mycobacterium tuberculosis H37Rv, 15 days of incubation, 90% inhibition of growth, visual reading
[3] = Mycobacterium tuberculosis, H37RV, 360 h, Mycobacterium tuberculosis H37Rv, 15 days of incubation, 90% inhibition of growth, visual reading

Row | Molecule | MIC90 [1] [µg/mL] | MIC90 [3] [µg/mL] | other results
1 | [2H]C1([2H])CC(c2cccc(Cl)c2)CC([2H])([2H])N1Cc1c(O)ccc2oc3c(c12)C(=O)OCc1cc(O)ccc1-3 [YF007, 8-((4-(3-Chlorophenyl)piperidin-1-yl-2,2,6,6-d4)methyl)-3,9-dihydroxybenzo[5,6]oxepino[4,3-b]benzofuran-7(5H)-one] | 0.125 (≈ 0.253 µM) |  | 
2 | [2H]C1([2H])CC(C(O)CCC)CC([2H])([2H])N1C([2H])([2H])c1c(O)ccc2oc3c(c12)C(=O)OCc1cc(O)ccc1-3 (centres unmarked) [YF019, 3,9-Dihydroxy-8-((4-(1-hydroxybutyl)piperidin-2,2,6,6-d4-1-yl)methyl)benzo[5,6]oxepino[4,3-b]benzofuran-7(5H)-one] |  |  | MIC90 [2]: 0.0078 µg/mL (≈ 0.017 µM)
3 | [2H]C([2H])(CC)C([2H])(O)C1([2H])CCN(Cc2c(O)ccc3oc4c(c23)C(=O)OCc2cc(O)ccc2-4)CC1 (centres unmarked) [YF018, 3,9-Dihydroxy-8-((4-(1-hydroxybutyl-1,2,2-d3)piperidin-1-yl-4-d)methyl)benzo[5,6]oxepino[4,3-b]benzofuran-7(5H)-one] | 0.0156 (≈ 0.0342 µM) |  | 
4 | [2H]c1c(O)c(C([2H])([2H])N2C([2H])([2H])CC(C(=O)CCC)CC2([2H])[2H])c2c3c(oc2c1[2H])-c1ccc(O)cc1C([2H])([2H])OC3=O [YF013, 8-((4-Butanoylpiperidin-1-yl-2,2,6,6-d4)-methyl-d2)-3,9-dihydroxybenzo[5,6]oxepino[4,3-b]benzofuran-7(5H)-one-5,5,10,11-d4] | 0.0625 (≈ 0.136 µM) |  | 
5 | [2H]C(O)(CCC)C1CC([2H])([2H])N(C([2H])([2H])c2c(O)ccc3oc4c(c23)C(=O)OCc2cc(O)ccc2-4)C([2H])([2H])C1 (centres unmarked) [YF020, 3,9-Dihydroxy-8-((4-(1-hydroxybutyl-1-d)piperidin-2,2,6,6-d4-1-yl)methyl)benzo[5,6]oxepino[4,3-b]benzofuran-7(5H)-one] |  | 0.0156 (≈ 0.034 µM) | 
6 | [2H]C1([2H])CC(C(=O)CCC)CC([2H])([2H])N1C([2H])([2H])c1c(O)ccc2oc3c(c12)C(=O)OCc1cc(O)ccc1-3 [YF012, 8-((4-Butanoylpiperidin-1-yl-2,2,6,6-d4)-methyl-d2)-3,9-dihydroxybenzo[5,6]oxepino[4,3-b]benzofuran-7(5H)-one] | 0.0312 (≈ 0.0686 µM) |  | 
7 | [2H]C1([2H])N(Cc2c(O)cc(C(C)(C)C)c3oc4c5ccc(O)cc5oc(=O)c4c23)C([2H])([2H])C([2H])([2H])C([2H])([2H])C1([2H])[2H] [YF004, 10-(tert-Butyl)-3,8-dihydroxy-7-((piperidin-1-yl-d10)methyl)-6H-benzofuran[3,2-c]chromen-6-one] |  | ≤ 0.0039 | 
8 | [2H]c1c(O)c(C([2H])([2H])N2C([2H])([2H])CC(c3cccc(Cl)c3)CC2([2H])[2H])c2c3c(oc2c1[2H])-c1ccc(O)cc1C([2H])([2H])OC3=O [YF009, 8-((4-(3-Chlorophenyl)piperidin-1-yl-2,2,6,6-d4)methyl-d2)-3,9-dihydroxybenzo[5,6]oxepino[4,3-b]benzofuran-7(5H)-one-5,5,10,11-d4] | 0.125 (≈ 0.25 µM) |  | 
9 | [2H]C1([2H])CCCC([2H])([2H])N1C([2H])([2H])c1c(O)cc(C(C)(C)C)c2oc3c4ccc(O)cc4oc(=O)c3c12 [YF003, 10-(tert-Butyl)-3,8-dihydroxy-7-((piperidin-1-yl-2,2,6,6-d4)methyl-d2)-6H-benzofuran[3,2-c]chromen-6-one] |  | ≤ 0.0039 | 
10 | [2H]c1c(O)c(C([2H])([2H])N2CCC([2H])(C([2H])(O)C([2H])([2H])CC)CC2)c2c3c(oc2c1[2H])-c1ccc(O)cc1C([2H])([2H])OC3=O (centres unmarked) [YF048, 3,9-Dihydroxy-8-((4-(1-hydroxybutyl-1,2,2-d3)piperidin-1-yl-1-d)methyl-d2)benzo[5,6]oxepino[4,3-b]benzofuran-7(5H)-one-5,5,10,11-d4 hydrochloride] |  | 0.0156 | 
11 | 3,9-Dihydroxy-8-((4-(1-hydroxybutyl-1-d)piperidin-1-yl)methyl-d2)benzo[5,6]oxepino[4,3-b]benzofuran-7(5H)-one hydrochloride [YF040] |  |  | MIC90 [2]: 0.0156 µg/mL
12 | 8-((4-(Butanoyl-2,2-d2)piperidin-1-yl-4-d)methyl-d2)-3,9-dihydroxybenzo[5,6]oxepino[4,3-b]benzofuran-7(5H)-one-5,5, 10,11-d4 [YF014] |  |  | MIC90 [2]: 0.0625 µg/mL
13 | [2H]C1([2H])CC(c2cccc(Cl)c2)CC([2H])([2H])N1C([2H])([2H])c1c(O)ccc2oc3c(c12)C(=O)OCc1cc(O)ccc1-3 [YF008, 8-((4-(3-Chlorophenyl)piperidin-1-yl-2,2,6,6-d4)methyl-d2)-3,9-dihydroxybenzo[5,6]oxepino[4,3-b]benzofuran-7(5H)-one] | 0.0625 (≈ 0.126 µM) |  | 
14 | [2H]C1([2H])CCCC([2H])([2H])N1Cc1c(O)cc(C(C)(C)C)c2oc3c4ccc(O)cc4oc(=O)c3c12 [YF002, 10-(tert-Butyl)-3,8-dihydroxy-7-((piperidin-1-yl-2,2,6,6-d4)methyl)-6H-benzofuran[3,2-c]chromen-6-one] |  | ≤ 0.0039 | 
15 | [2H]c1c(O)c(C([2H])([2H])N2C([2H])([2H])CC(C(O)CCC)CC2([2H])[2H])c2c3c(oc2c1[2H])-c1ccc(O)cc1C([2H])([2H])OC3=O (centres unmarked) [YF045, 3,9-Dihydroxy-8-((4-(1-hydroxybutyl)piperidin-2,2,6,6-d4-1-yl)methyl-d2)benzo[5,6]oxepino[4,3-b]benzofuran-7(5H)-one-5,5,10,11-d4 hydrochloride] |  | 0.0156 | 
16 | [2H]C([2H])(c1c(O)ccc2oc3c(c12)C(=O)OCc1cc(O)ccc1-3)N1CCC(C(=O)CCC)CC1 [YF010, 8-((4-Butanoyl)piperidin-1-ylmethyl-d2)-3,9-dihydroxybenzo[5,6]oxepino[4,3-b]benzofuran-7(5H)-one] |  | 0.0625 (≈ 0.138 µM) | 
17 | [2H]C([2H])(c1c(O)cc(C(C)(C)C)c2oc3c4ccc(O)cc4oc(=O)c3c12)N1CCCCC1 [YF001, 10-(tert-Butyl)-3,8-dihydroxy-7-(piperidin-1-ylmethyl-d2)-6H-benzofuran[3,2-c]chromen-6-one] |  | ≤ 0.0039 | 
18 | [2H]C([2H])(c1c(O)ccc2oc3c(c12)C(=O)OCc1cc(O)ccc1-3)N1CCC(C(O)CCC)CC1 (centres unmarked) [YF015, 3,9-Dihydroxy-8-((4-(1-hydroxybutyl)piperidin-1-yl)methyl-d2)benzo[5,6]oxepino[4,3-b]benzofuran-7(5H)-one] | 0.0156 (≈ 0.0344 µM) |  | 
19 | 8-((4-(Butanoyl-2,2-d2)piperidin-1-yl-4-d)methyl-d2)-3,9-dihydroxybenzo[5,6]oxepino[4,3-b]benzofuran-7(5H)-one-5,5,10,11-d4 hydrochloride [YF038] |  |  | MIC90 [2]: 0.0625 µg/mL
20 | [2H]c1c(O)c(C([2H])([2H])N2CCC([2H])(C(O)C([2H])([2H])CC)CC2)c2c3c(oc2c1[2H])-c1ccc(O)cc1C([2H])([2H])OC3=O (centres unmarked) [YF023, 3,9-Dihydroxy-8-((4-(1-hydroxybutyl-2,2-d2)piperidin-1-yl-1-d)methyl-d2)benzo[5,6]oxepino[4,3-b]benzofuran-7(5H)-one-5,5,10,11-d4] |  |  | MIC90 (H37RV, 360 h): 0.0156 µg/mL (≈ 0.0339 µM)
21 | [2H]c1c(O)c(C([2H])([2H])N2C([2H])([2H])CC(C(O)CCC)CC2([2H])[2H])c2c3c(oc2c1[2H])-c1ccc(O)cc1C([2H])([2H])OC3=O (centres unmarked) [YF021, 3,9-Dihydroxy-8-((4-(1-hydroxybutyl)piperidin-2,2,6,6-d4-1-yl)methyl-d2)benzo[5,6]oxepino[4,3-b]benzofuran-7(5H)-one-5,5,10,11-d4] |  |  | MIC90 (H37RV, 360 h): 0.0156 µg/mL (≈ 0.0338 µM)
22 | [2H]C1([2H])CC(C(O)CCC)CC([2H])([2H])N1C([2H])([2H])c1c(O)ccc2oc3c(c12)C(=O)OCc1cc(O)ccc1-3 (centres unmarked) [YF043, 3,9-Dihydroxy-8-((4-(1-hydroxybutyl)piperidin-2,2,6,6-d4-1-yl)methyl)benzo[5,6]oxepino[4,3-b]benzofuran-7(5H)-one hydrochloride] |  | 0.0156 | 
23 | [2H]C([2H])(CC)C(O)C1([2H])CCN(Cc2c(O)ccc3oc4c(c23)C(=O)OCc2cc(O)ccc2-4)CC1 (centres unmarked) [YF017, 3,9-Dihydroxy-8-((4-(1-hydroxybutyl-2,2-d2)piperidin-1-yl-4-d)methyl)benzo[5,6]oxepino[4,3-b]benzofuran-7(5H)-one] | 0.0156 (≈ 0.0343 µM) |  | 
24 | [2H]C([2H])(c1c(O)ccc2oc3c(c12)C(=O)OCc1cc(O)ccc1-3)N1CCC(c2cccc(Cl)c2)CC1 [YF006, 8-((4-(3-Chlorophenyl)piperidin-1-yl)methyl-d2)-3,9-dihydroxybenzo[5,6]oxepino[4,3-b]benzofuran-7(5H)-one] | 0.125 (≈ 0.254 µM) |  | 
25 | [2H]C(O)(CCC)C1CCN(C([2H])([2H])c2c(O)ccc3oc4c(c23)C(=O)OCc2cc(O)ccc2-4)CC1 (centres unmarked) [YF016, 3,9-Dihydroxy-8-((4-(1-hydroxybutyl-1-d)piperidin-1-yl)methyl-d2)benzo[5,6]oxepino[4,3-b]benzofuran-7(5H)-one] | 0.0156 (≈ 0.0343 µM) |  | 
26 | [2H]c1c(O)c(C([2H])([2H])N2C([2H])([2H])CC(C([2H])(O)CCC)CC2([2H])[2H])c2c3c(oc2c1[2H])-c1ccc(O)cc1C([2H])([2H])OC3=O (centres unmarked) [YF046, 3,9-Dihydroxy-8-((4-(1-hydroxybutyl-1-d)piperidin-2,2,6,6-d4-1-yl)methyl-d2)benzo[5,6]oxepino[4,3-b]benzofuran-7(5H)-one-5,5,10,11-d4 hydrochloride] |  | 0.0156 | 
27 | [2H]c1c(O)c(C([2H])([2H])N2C([2H])([2H])CC(C([2H])(O)CCC)CC2([2H])[2H])c2c3c(oc2c1[2H])-c1ccc(O)cc1C([2H])([2H])OC3=O (centres unmarked) [YF022, 3,9-Dihydroxy-8-((4-(1-hydroxybutyl-1-d)piperidin-2,2,6,6-d4-1-yl)methyl-d2)benzo[5,6]oxepino[4,3-b]benzofuran-7(5H)-one-5,5,10,11-d4] |  |  | MIC90 (H37RV, 360 h): 0.0156 µg/mL (≈ 0.0337 µM)
28 | [2H]C([2H])(CC)C(=O)C1([2H])CCN(Cc2c(O)ccc3oc4c(c23)C(=O)OCc2cc(O)ccc2-4)CC1 [YF011, 8-((4-(Butanoyl-2,2-d2)piperidin-1-yl-4-d)methyl)-3,9-dihydroxybenzo[5,6]oxepino[4,3-b]benzofuran-7(5H)-one] | 0.0625 (≈ 0.138 µM) |  | 
29 | [2H]c1c(O)c(C([2H])([2H])N2CCC([2H])(C([2H])(O)C([2H])([2H])CC)CC2)c2c3c(oc2c1[2H])-c1ccc(O)cc1C([2H])([2H])OC3=O (centres unmarked) [YF024, 3,9-Dihydroxy-8-((4-(1-hydroxybutyl-1,2,2-d3)piperidin-1-yl-1-d)methyl-d2)benzo[5,6]oxepino[4,3-b]benzofuran-7(5H)-one-5,5,10,11-d4] |  |  | MIC90 (H37RV, 360 h): 0.0156 µg/mL (≈ 0.0338 µM)
